Test results taken from patent publication US20240226228A1, “ANTIMICROBIAL PEPTOID HAVING IMPROVED SELECTIVITY AND ANTIMICROBIAL COMPOSITION COMPRISING SAME” (priority 2021, published 2024).
Converted amounts (≈) assume the structure as drawn. Where two headings read alike, the source gives them in different places. Where a SMILES comes first, the peptide text is derived from it. [ ]: non-standard residue; d: D form. Gly(N(CH2)2(3-indolyl)) = O=C(O)CNCCc1c[nH]c2ccccc12; Nspe = C[C@H](NCC(=O)O)c1ccccc1; Nlys = NCCCCNCC(=O)O

Key:
[1] = system: E. coli ATCC25922
How it was run: (§1)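 Cation-adjusted MHB2 cultures (18 h, subcultured 4 h) adjusted to 2×10^5–5×10^5 CFU/mL in medium with 0.02% BSA and 0.001% acetic acid.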

[2] = system: S. aureus ATCC 25923
How it was run: as §1

[3] = system: red blood cells; test: Hemolysis assay; type: cell-based, Sprague-Dawley mouse
How it was run: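 Peptoid is mixed with 10% (v/v) PBS-washed erythrocytes (male Sprague-Dawley […], 13 weeks) and held 1 h at 37 °C. Hemolysis is calculated from 540 nm absorbance of the supernatant, with PBS as 0% and Triton X-100 as 100%.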

[4] = system: E. coli KCTC 2411; test: MIC in multidrug-resistant bacteria, modified microdilution method; type: cell-based; settings: Table 14
Description: (§2) The MIC of the prepared peptoid in multidrug-resistant bacteria was measured using a modified microdilution method in a Difco Mueller Hinton medium, and a test was performed on a bacterial pathogen panel with resistant and tolerance to general antibiotics.
(§3) Briefly, a medium containing bovine serum albumin and 0.001% acetic acid was used to continuously dilute a peptoid concentrate 10-times stronger than the final concentration. 10 uμL of the 10-time stronger peptoid concentrate and 90 μL of a Muleller Hinton medium were added to each well of a 96-well plate. Bacteria were added to the plate until the final concentration reached 2×10^5 CFU/mL and then incubated at […] overnight. MIC was defined as a concentration at which bacterial growth is not observed.

[5] = system: Enterobacter SP KCTC 2625; test: as above; type: cell-based; settings: Table 14
Description: as §2, §3

[6] = system: Enterococcus Faecium KCTC 13225; test: as above; type: cell-based; settings: Table 14
Description: as §2, §3

[7] = system: Enterococcus faecalis KCTC 3511; test: as above; type: cell-based; settings: Table 14
Description: as §2, §3

[8] = in vitro; settings: human, LC50 MRC-5
Description: (§4) Human lung cells (MRC-5) were purchased from the Korean Cell Line Bank, and human keratinocytes (HaCaT) were purchased from the AmorePacific R&D Center. All cells were grown in a Dulbecco's modified Eagle's medium containing 10% fetal bovine serum under conditions of 5% CO2 and 37° C. To confirm the effect of a peptoid on cell growth, 3-(4,5-dimethylthiazol-2-yl)-5-(3-carboxymethoxyphenyl)-2-(4-sulfophenyl)-2H-tetrazolium (MTS) cell assay was performed to determine cell viability. An aliquot (100 μL) of a batch including 1.3×10^4 MRC-5 cells/mL or 3×10^4 HaCaT cells/mL was dispensed into each well of a 96-well plate. The cells were grown at 37° C. in a 5% CO2 humid atmosphere and allowed to adhere for 24 hours. When the cells reached approximately 70% confluency, the medium was replaced with serial dilutions of the peptoid stock and incubated for 24 hours. 20 μL of a CellTiter 96 aqueous non-radioactive cell proliferation assay reagent (Promega, USA) including a tetrazolium compound was added to each well.
(§5) The contents in the plate were metabolized by incubating at 37° C. for 4 hours. An MTS-formazan product of viable cells was measured at 490 nm using a microplate reader, and cell viability (%) was calculated by Equation 2 below and compared with untreated cells.
(§6) Cell viability (%)=[A/(Acontrol)]×100 [Equation 2]
(§7) In Equation 2, A is the absorbance of a test well, and Acontrol is the average absorbance of a well containing untreated cells.
(§8) The term “nd” shown in Table 19 below is the abbreviation for not determined, and indicates a value that is too small or too large to be measured.

[9] = HPLC to confirm peptoid decomposition after counter ion substitution; type: physicochemical; settings: HPLC at 220 nm; HCl and AcOH
Description: FIGS. 76 to 83 are the HPLC results for Peptoids 1, 10, 11, 14, 15, 29, 32 and 37 of the present inventive concept to confirm the decomposition of the peptoids after counter ion substitution using (a) HCl and (b) AcOH.
Referring to FIGS. […], HPLC was performed for Peptoids 1, 10, 11, 14, 15, 29, 32 and 37 of the present inventive concept. Since the chloride (HCl) is a stronger acid than TFA, it can decompose acid-vulnerable peptoid compounds.

[10] = system: Human lung cells (MRC-5); test: in vitro
Description: as §4, §5, §6, §7, §8

[11] = system: human keratinocytes (HaCaT); test: in vitro
Description: as §4, §5, §6, §7, §8

[12] = Table 18, TFA salt vs counter ion-substituted (HCl, AcOH) peptoids
[13] = Tables 11-13, 24 hours at 37° C., maximum concentration 25 μM
[14] = Table 18, TFA salt vs counter ion-substituted peptoids

| Structure (SMILES) | MIC E. coli ATCC25922 [1, 12] [µM] | MIC S. aureus ATCC 25923 [2, 12] [µM] | HC10 [3] | HC50 [3] | Hmax (100 μM) [3] [%] | LC50 / animal cell toxicity, MRC-5 (in words) [10] | LC50 / animal cell toxicity, HaCaT (in words) [11] | also measured |
| --- | --- | --- | --- | --- | --- | --- | --- | --- |
| C[C@@H](c1ccccc1)N(CC(N)=O)C(=O)CN(C(=O)CN(CCCCN)C(=O)CN(C(=O)CN(C(=O)CN(CCCCN)C(=O)CN(C(=O)CN(C(=O)CN(CCCCN)C(=O)CN(CCc1c[nH]c2ccccc12)C(=O)CN(CCc1c[nH]c2ccccc12)C(=O)CNCCCCN)[C@@H](C)c1ccccc1)[C@@H](C)c1ccccc1)[C@@H](C)c1ccccc1)[C@@H](C)c1ccccc1)[C@@H](C)c1ccccc1 [Peptoid 14, H-NLys-NhTrp-NhTrp-NLys-Nspe-Nspe-NLys-Nspe-Nspe-NLys-Nspe-Nspe-NH2] | 3.1 | 1.6 | 12.5 µM | 21.1 µM | – | – | – | MIC E. coli ATCC25922 [1, 13]: 3.1 µM (≈ 5.88 µg/mL); MIC S. aureus ATCC 25923 [2, 13]: <0.8 µM; HC10 ([3]; Tables 11-13, concentration that induces hemolysis in 10% red blood cells): 23.6 µM; HC50 ([3]; Tables 11-13, concentration that induces hemolysis in 50% red blood cells): 43.4 µM; MIC E. coli KCTC 2411 [4]: 6.3 µM (≈ 12 µg/mL); MIC Enterobacter SP KCTC 2625 [5]: 3.1 µM (≈ 5.88 µg/mL); MIC Enterococcus Faecium KCTC 13225 [6]: < 0.8 µM; MIC Enterococcus faecalis KCTC 3511 [7]: 1.6 µM (≈ 3.04 µg/mL); CC50 at 24 h [8]: 9.7 µM; peptoid decomposition after counter ion substitution (in words) [9]: almost no peptoid decomposition occurred |
| C[C@@H](c1ccccc1)N(CC(N)=O)C(=O)CN(C(=O)CN(CCCCN)C(=O)CN(C(=O)CN(C(=O)CN(CCCCN)C(=O)CN(C(=O)CN(C(=O)CN(CCCCN)C(=O)CN(C(=O)CN(C(=O)CNCCCCN)[C@@H](C)c1ccccc1)[C@@H](C)c1ccccc1)[C@@H](C)c1ccccc1)[C@@H](C)c1ccccc1)[C@@H](C)c1ccccc1)[C@@H](C)c1ccccc1)[C@@H](C)c1ccccc1 [Peptoid 1-1, reference compound] (H-[Nlys][Nspe][Nspe][Nlys][Nspe][Nspe][Nlys][Nspe][Nspe][Nlys][Nspe][Nspe]-NH2) | 6.3 | 1.6 | – | – | – | – | – | HC10 [3, 14]: 27.6 µM; HC50 [3, 14]: 83.3 µM; Hmax (100 μM) [3, 14]: 61.5 ± 0.9%; CC50 ([10]; read-out: LC50 MRC-5, 24 hours incubation, concentration that causes 50% cell lethality): 11.8 µM |
| C[C@@H](c1ccccc1)N(CC(N)=O)C(=O)CN(CCCCN)C(=O)CN(CCCCN)C(=O)CN(C(=O)CN(C(=O)CN(CCCCN)C(=O)CN(C(=O)CN(C(=O)CN(CCCCN)C(=O)CN(CCc1c[nH]c2ccccc12)C(=O)CN(CCc1c[nH]c2ccccc12)C(=O)CNCCCCN)[C@@H](C)c1ccccc1)[C@@H](C)c1ccccc1)[C@@H](C)c1ccccc1)[C@@H](C)c1ccccc1 [Peptoid 32-2] | 6.3 | 6.3 | 83.0 µM | > 100 µM | 13.8 ± 1.1 | LC50 values of the peptoids increase | LC50 values of the peptoids increase | – |
| C[C@@H](c1ccccc1)N(CC(=O)N(CCCCN)CC(=O)N(CCc1c[nH]c2ccccc12)CC(=O)N(CCc1c[nH]c2ccccc12)CC(N)=O)C(=O)CN(CCCCN)C(=O)CN(CCCCN)C(=O)CN(C(=O)CN(C(=O)CN(CCCCN)C(=O)CN(C(=O)CN(C(=O)CNCCCCN)[C@@H](C)c1ccccc1)[C@@H](C)c1ccccc1)[C@@H](C)c1ccccc1)[C@@H](C)c1ccccc1 [Peptoid 29-2] (H-[Nlys][Nspe][Nspe][Nlys][Nspe][Nspe][Nlys][Nlys][Nspe][Nlys][Gly(N(CH2)2(3-indolyl))][Gly(N(CH2)2(3-indolyl))]-NH2) | 6.3 | 12.5 | >100/>100 μM | >100/>100 μM | 5.2 ± 0.2 | LC50 values of the peptoids increase | LC50 values of the peptoids increase | – |
